Measurements as given in ChEMBL document CHEMBL1125035, “Synthesis and biological activity of novel vitamin D analogues: 24,24-difluoro-25-hydroxy-26,27-dimethylvitamin D3 and 24,24-difluoro-1 alpha,25-dihydroxy-26,27-dimethylvitamin D3” (1990).

How the values were obtained:
[1] = system: Rattus norvegicus; assay: Ability to stimulate intestinal-calcium transport by the administration of compound in rats at a concentration of 50 pmol at 4 hr.; assay type: functional, Intestine
[2] = system: Rattus norvegicus; assay: Ability to mobilize Bone-Calcium transport, following the administration of compound in rats at a concentration of 5000 pmol at 69 hr.; assay type: functional, organism-based
[3] = system: Rattus norvegicus; assay: Ability to stimulate intestinal-calcium transport by the administration of compound in rats at a concentration of 500 pmol at 12 hr.; assay type: functional, Intestine
[4] = species: Gallus gallus; assay: Bind to chick intestinal Vitamin D3 receptor for 1,25-(OH)2-D3
[5] = system: Rattus norvegicus; assay: Ability to mobilize Bone-Calcium transport, following the administration of compound in rats at a concentration of 5 pmol at 2 hr.; assay type: functional, organism-based
[6] = system: Rattus norvegicus; assay: Ability to stimulate intestinal-calcium transport by the administration of compound in rats at a concentration of 5 pmol at 24 hr.; assay type: functional, Intestine
[7] = system: Rattus norvegicus; assay: Ability to stimulate intestinal-calcium transport by the administration of compound in rats at a concentration of 500 pmol at 24 hr.; assay type: functional, Intestine
[8] = system: Rattus norvegicus; assay: Ability to stimulate intestinal-calcium transport by the administration of compound in rats at a concentration of 5 pmol at 4 hr.; assay type: functional, Intestine
[9] = system: Rattus norvegicus; assay: Ability to mobilize Bone-Calcium transport, following the administration of compound in rats at a concentration of 50 pmol at 2 hr.; assay type: functional, organism-based
[10] = system: Rattus norvegicus; assay: Ability to mobilize Bone-Calcium transport, following the administration of compound in rats at a concentration of 5000 pmol at 2 hr.; assay type: functional, organism-based
[11] = system: Rattus norvegicus; assay: Ability to stimulate intestinal-calcium transport by the administration of compound in rats at a concentration of 50 pmol at 2 hr.; assay type: functional, Intestine
[12] = molecular target: T1, Vitamin D-binding protein (Rattus norvegicus) (UniProt P04276); assay: Displacement of [3H]25-(OH)-D3 from rat plasma Vitamin D binding protein; assay type: cell-free
T1 sequence (whole entry): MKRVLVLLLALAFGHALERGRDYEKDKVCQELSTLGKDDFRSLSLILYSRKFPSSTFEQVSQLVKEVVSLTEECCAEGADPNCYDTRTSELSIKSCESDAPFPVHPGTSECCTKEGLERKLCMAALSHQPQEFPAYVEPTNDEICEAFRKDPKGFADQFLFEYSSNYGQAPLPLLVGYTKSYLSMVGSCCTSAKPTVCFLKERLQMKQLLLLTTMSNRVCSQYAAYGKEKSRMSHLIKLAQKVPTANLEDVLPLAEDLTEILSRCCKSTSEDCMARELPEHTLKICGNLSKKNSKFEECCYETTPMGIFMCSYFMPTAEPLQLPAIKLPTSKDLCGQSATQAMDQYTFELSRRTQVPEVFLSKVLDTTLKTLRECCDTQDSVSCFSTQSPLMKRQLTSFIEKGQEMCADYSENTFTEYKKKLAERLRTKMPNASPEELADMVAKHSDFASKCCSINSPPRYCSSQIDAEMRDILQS

[13] = system: Rattus norvegicus; assay: Ability to mobilize Bone-Calcium transport, following the administration of compound in rats at a concentration of 50 pmol at 4 hr.; assay type: functional, organism-based
[14] = system: Rattus norvegicus; assay: Ability to stimulate intestinal-calcium transport by the administration of compound in rats at a concentration of 5000 pmol at 2 hr.; assay type: functional, Intestine
[15] = system: Rattus norvegicus; assay: Ability to stimulate intestinal-calcium transport by the administration of compound in rats at a concentration of 500 pmol at 69 hr.; assay type: functional, Intestine
[16] = system: Rattus norvegicus; assay: Ability to stimulate intestinal-calcium transport by the administration of compound in rats at a concentration of 5 pmol at 2 hr.; assay type: functional, Intestine
[17] = system: Rattus norvegicus; assay: Ability to mobilize Bone-Calcium transport, following the administration of compound in rats at a concentration of 5 pmol at 24 hr.; assay type: functional, organism-based
[18] = system: Rattus norvegicus; assay: Ability to stimulate intestinal-calcium transport by the administration of compound in rats at a concentration of 5000 pmol at 4 hr.; assay type: functional, Intestine
[19] = system: Rattus norvegicus; assay: Ability to mobilize Bone-Calcium transport, following the administration of compound in rats at a concentration of 500 pmol at 69 hr.; assay type: functional, organism-based
[20] = system: Rattus norvegicus; assay: Ability to mobilize Bone-Calcium transport, following the administration of compound in rats at a concentration of 50 pmol at 24 hr.; assay type: functional, organism-based
[21] = system: Rattus norvegicus; assay: Ability to mobilize Bone-Calcium transport, following the administration of compound in rats at a concentration of 5 pmol at 4 hr.; assay type: functional, organism-based
[22] = system: Rattus norvegicus; assay: Ability to stimulate intestinal-calcium transport by the administration of compound in rats at a concentration of 5 pmol at 48 hr.; assay type: functional, Intestine
[23] = system: Rattus norvegicus; assay: Ability to stimulate intestinal-calcium transport by the administration of compound in rats at a concentration of 500 pmol at 2 hr.; assay type: functional, Intestine
[24] = system: Rattus norvegicus; assay: Ability to stimulate intestinal-calcium transport by the administration of compound in rats at a concentration of 500 pmol at 4 hr.; assay type: functional, Intestine
[25] = system: Rattus norvegicus; assay: Ability to mobilize Bone-Calcium transport, following the administration of compound in rats at a concentration of 5000 pmol at 24 hr.; assay type: functional, organism-based
[26] = system: Rattus norvegicus; assay: Ability to stimulate intestinal-calcium transport by the administration of compound in rats at a concentration of 50 pmol at 24 hr.; assay type: functional, Intestine
[27] = system: Rattus norvegicus; assay: Ability to mobilize Bone-Calcium transport, following the administration of compound in rats at a concentration of 500 pmol at 4 hr.; assay type: functional, organism-based
[28] = system: Rattus norvegicus; assay: Ability to mobilize Bone-Calcium transport, following the administration of compound in rats at a concentration of 500 pmol at 2 hr.; assay type: functional, organism-based
[29] = system: Rattus norvegicus; assay: Ability to mobilize Bone-Calcium transport, following the administration of compound in rats at a concentration of 500 pmol at 24 hr.; assay type: functional, organism-based
[30] = system: Rattus norvegicus; assay: Ability to mobilize Bone-Calcium transport, following the administration of compound in rats at a concentration of 5000 pmol at 4 hr.; assay type: functional, organism-based
[31] = system: Rattus norvegicus; assay: Ability to stimulate intestinal-calcium transport by the administration of compound in rats at a concentration of 5000 pmol at 24 hr.; assay type: functional, Intestine
[32] = system: Rattus norvegicus; assay: Ability to mobilize Bone-Calcium transport, following the administration of compound in rats at a concentration of 5000 pmol at 47 hr.; assay type: functional, organism-based
[33] = system: Rattus norvegicus; assay: Ability to mobilize Bone-Calcium transport, following the administration of compound in rats at a concentration of 50 pmol at 47 hr.; assay type: functional, organism-based
[34] = system: Rattus norvegicus; assay: Ability to stimulate intestinal-calcium transport by the administration of compound in rats at a concentration of 50 pmol at 72 hr.; assay type: functional, Intestine
[35] = system: Rattus norvegicus; assay: Ability to mobilize Bone-Calcium transport, following the administration of compound in rats at a concentration of 5000 pmol at 72 hr.; assay type: functional, organism-based
[36] = system: Rattus norvegicus; assay: Ability to stimulate intestinal-calcium transport by the administration of compound in rats at a concentration of 5000 pmol at 72 hr.; assay type: functional, Intestine
[37] = system: Rattus norvegicus; assay: Ability to mobilize Bone-Calcium transport, following the administration of compound in rats at a concentration of 500 pmol at 47 hr.; assay type: functional, organism-based
[38] = system: Rattus norvegicus; assay: Ability to stimulate intestinal-calcium transport by the administration of compound in rats at a concentration of 5 pmol at 13 hr.; assay type: functional, Intestine

Row | SMILES | Serosal/Mucosal Ca [1] | B50 [4] [nM] | Serum Ca2+ [5] [mg/dL] | Serosal/Mucosal Ca [6] | Serosal/Mucosal Ca [7] | Serosal/Mucosal Ca [8] | Serum Ca2+ [9] [mg/dL] | Serum Ca2+ [10] [mg/dL] | Serosal/Mucosal Ca [11] | B50 [12] [nM] | Serum Ca2+ [13] [mg/dL] | Serosal/Mucosal Ca [14] | Serosal/Mucosal Ca [16] | Serum Ca2+ [17] [mg/dL] | Serosal/Mucosal Ca [18] | Serum Ca2+ [20] [mg/dL] | Serum Ca2+ [21] [mg/dL] | Serosal/Mucosal Ca [23] | Serosal/Mucosal Ca [24] | Serum Ca2+ [25] [mg/dL] | also measured
1 | C=C1/C(=C\C=C2/CCC[C@]3(C)[C@@H]([C@H](C)CCC(F)(F)C(O)(CC)CC)CC[C@@H]23)C[C@@H](O)C[C@@H]1O | 4.22 | 0.495 | 4.5 | 2.14 | 7.3 | 3.36 | 4.42 | 5.1 | 2.27 | 2200 | 5 | 3.7 | 2.08 | 4.38 | 4.84 | 4.74 | 4.28 | 4.55 | 6.44 | 6.36 | Serum Ca2+ [2]: 4.82 mg/dL; Serosal/Mucosal Ca [3]: 8.92; Serosal/Mucosal Ca [15]: 5.46; Serum Ca2+ [19]: 4.87 mg/dL; Serosal/Mucosal Ca [22]: 2.09; Serosal/Mucosal Ca [26]: 3.93; Serum Ca2+ [27]: 5.1 mg/dL; Serum Ca2+ [28]: 4.8 mg/dL; Serum Ca2+ [29]: 5.58 mg/dL; Serum Ca2+ [30]: 5.48 mg/dL; Serosal/Mucosal Ca [31]: 5.32
2 | C=C1/C(=C\C=C2/CCC[C@]3(C)[C@@H]([C@H](C)CCCC(C)(C)O)CC[C@@H]23)C[C@@H](O)C[C@@H]1O [CALCITRIOL] | 5.09 | 0.0725 | 4.4 | 2.95 | 3.5 | 2.53 | 4.35 | 4.84 | 2.5 | 45.3 | 4.58 | 3.12 | 2.21 | 4.58 | 7.66 | 5 | 4.32 | 3.1 | 6.6 | 5.5 | Serum Ca2+ [2]: 4.78 mg/dL; Serosal/Mucosal Ca [3]: 4.06; Serosal/Mucosal Ca [15]: 5.67; Serum Ca2+ [19]: 4.48 mg/dL; Serosal/Mucosal Ca [22]: 3.19; Serosal/Mucosal Ca [26]: 4.34; Serum Ca2+ [27]: 5.32 mg/dL; Serum Ca2+ [28]: 4.76 mg/dL; Serum Ca2+ [29]: 4.98 mg/dL; Serum Ca2+ [30]: 5.6 mg/dL; Serosal/Mucosal Ca [31]: 4.71
3 | C=C1CC[C@H](O)C/C1=C/C=C1\CCC[C@]2(C)[C@@H]([C@H](C)CCCC(C)(C)O)CC[C@@H]12 [CALCIFEDIOL ANHYDROUS] | 2.17 | 282 | 4.32 | 2.84 | 7.19 | 2.42 | 4.48 | 4.64 | 1.75 | 3.77 | 4.1 | 2.93 | 2.03 | 4.34 | 3.31 | 5.06 | 4.14 | 2.22 | 2.83 | 5.82 | Serum Ca2+ [32]: 6.24 mg/dL; Serum Ca2+ [33]: 4.68 mg/dL; Serosal/Mucosal Ca [34]: 8.87; Serum Ca2+ [35]: 6.5 mg/dL; Serosal/Mucosal Ca [36]: 11.48; Serum Ca2+ [37]: 5.12 mg/dL; Serosal/Mucosal Ca [38]: 2.22; Serosal/Mucosal Ca [26]: 4.8; Serum Ca2+ [27]: 4.22 mg/dL; Serum Ca2+ [28]: 4.66 mg/dL; Serum Ca2+ [29]: 5.5 mg/dL; Serum Ca2+ [30]: 4.12 mg/dL; Serosal/Mucosal Ca [31]: 7.19
4 | C=C1CC[C@H](O)C/C1=C/C=C1\CCC[C@]2(C)[C@@H]([C@H](C)CCC(F)(F)C(O)(CC)CC)CC[C@@H]12 | 1.97 | 52.8 | 4.4 | 2.34 | 7.11 | 1.61 | 4.28 | 4.78 | 1.8 | 25.8 | 4.18 | 3.77 | 1.89 | 4.9 | 3.18 | 4.72 | 4.38 | 2.58 | 2.27 | 5.9 | Serum Ca2+ [32]: 6.16 mg/dL; Serum Ca2+ [33]: 4.63 mg/dL; Serosal/Mucosal Ca [34]: 2.84; Serum Ca2+ [35]: 5.84 mg/dL; Serosal/Mucosal Ca [36]: 9.39; Serum Ca2+ [37]: 4.5 mg/dL; Serosal/Mucosal Ca [38]: 2.3; Serosal/Mucosal Ca [26]: 6.16; Serum Ca2+ [27]: 4.4 mg/dL; Serum Ca2+ [28]: 4.22 mg/dL; Serum Ca2+ [29]: 5.1 mg/dL; Serum Ca2+ [30]: 4.56 mg/dL; Serosal/Mucosal Ca [31]: 8.65
